In PubChem BioAssay (NCI):
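1) Cells in 96-well plates. 2) Compound, 48 h, 5 concentrations. 3) Linear interpolation between surrounding doses. 4) Unreached endpoint = highest concentration. GI50: concentration for 50% inhibition of growth. The concentration for full growth arrest is given as TGI.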

Tests used:
Assay in all cases: NCI anticancer screen, dose series, 48 h; in the data active = GI50 below about 0.43 µM; inactive = the rest
[1] = tested on: OVCAR-4 ovarian
[2] = tested on: OVCAR-5 ovarian
[3] = tested on: MDA-MB-435
[4] = tested on: TK-10 renal
[5] = tested on: NCI-H23 lung
[6] = tested on: SF-539 CNS
[7] = tested on: EKVX NSCLC
[8] = tested on: UACC-257 melanoma
[9] = tested on: HCT-15 colon
[10] = tested on: UO-31 renal
[11] = tested on: HCC-2998 colon
[12] = tested on: SNB-19 CNS
[13] = tested on: SN12C renal
[14] = tested on: 786-0 renal
[15] = tested on: K-562 leukemia
[16] = tested on: LOX IMVI melanoma
[17] = tested on: RXF 393 renal
[18] = tested on: ACHN renal
[19] = tested on: T-47D breast
[20] = tested on: HOP-92 NSCLC
[21] = tested on: HL-60(TB) leukemia
[22] = tested on: HCT-116 colon
[23] = tested on: SK-MEL-28 melanoma
[24] = tested on: SW-620 colon
[25] = tested on: NCI-H226 lung
[26] = tested on: CCRF-CEM leukemia
[27] = tested on: IGROV1 ovarian
[28] = tested on: NCI-H460 lung
[29] = tested on: MALME-3M melanoma
[30] = tested on: A498 renal
[31] = tested on: MOLT-4 leukemia
[32] = tested on: HT29 colon
[33] = tested on: HOP-62 NSCLC
[34] = tested on: OVCAR-3 ovarian
[35] = tested on: SK-OV-3 ovarian
[36] = tested on: UACC-62 melanoma
[37] = tested on: RPMI-8226 leukemia
[38] = tested on: SNB-75 CNS
[39] = tested on: DU-145 prostate
[40] = tested on: CAKI-1 renal
[41] = tested on: MDA-MB-231 breast
[42] = tested on: A549 NSCLC
[43] = tested on: MCF7 breast
[44] = tested on: U251 CNS
[45] = tested on: NCI-H522 lung
[46] = tested on: NCI/ADR-RES ovarian
[47] = tested on: KM12 colon
[48] = tested on: PC-3 prostate
[49] = tested on: SF-268 CNS
[50] = tested on: OVCAR-8 ovarian
[51] = tested on: BT-549 breast
[52] = tested on: M14 melanoma
[53] = tested on: SF-295 CNS
[54] = tested on: SK-MEL-2 melanoma
[55] = tested on: COLO 205 colon
[56] = tested on: SK-MEL-5 melanoma
[57] = tested on: HS 578T breast
[58] = tested on: SR leukemia
[59] = tested on: MDA-N

CCN(Cc1ccc(Cl)cc1)c1ccc(CO)c(Cl)c1
15.3 µM: TGI [16]
0.641 µM: TGI [27]
16.4 µM: TGI [24]
19.3 µM: TGI [13]
11.3 µM: TGI [1]
1250 nM: TGI [19]
14.3 µM: TGI [42]
0.379 µM: TGI [4]
20.9 µM: TGI [46]
12.1 µM: TGI [53]
inactive: GI50 [1] 543 nM | GI50 [3] 11 µM | GI50 [5] 3.23 µM | GI50 [6] 11.9 µM | GI50 [7] 12.4 µM | GI50 [9] 3.52 µM | GI50 [10] 2180 nM | GI50 [11] 7.7 µM | GI50 [12] 13.1 µM | GI50 [13] 4.35 µM | GI50 [14] 2190 nM | GI50 [15] 1870 nM | GI50 [16] 3.36 µM | GI50 [17] 2070 nM | GI50 [18] 4.64 µM | GI50 [20] 1520 nM | GI50 [21] 3.17 µM | GI50 [23] 11.2 µM | GI50 [24] 824 nM | GI50 [26] 9.96 µM | GI50 [29] 12.8 µM | GI50 [31] 13.5 µM | GI50 [32] 3.12 µM | GI50 [33] 1240 nM | GI50 [34] 1150 nM | GI50 [35] 2600 nM | GI50 [37] 3.27 µM | GI50 [38] 3.4 µM | GI50 [39] 7.89 µM | GI50 [40] 563 nM | GI50 [41] 4.95 µM | GI50 [42] 1350 nM | GI50 [44] 863 nM | GI50 [45] 7.55 µM | GI50 [46] 5.59 µM | GI50 [47] 11.8 µM | GI50 [48] 11.5 µM | GI50 [49] 13.5 µM | GI50 [50] 3.62 µM | GI50 [51] 5.02 µM | GI50 [52] 4.43 µM | GI50 [53] 997 nM | GI50 [54] 1750 nM | GI50 [55] 2200 nM | GI50 [56] 2580 nM | GI50 [57] 6.09 µM | GI50 [58] 17.7 µM
21.9 µM: TGI [11]
31.5 µM: TGI [57]
32.9 µM: TGI [37]
512 nM: TGI [8]
13.5 µM: TGI [10] | TGI [32]
19.4 µM: TGI [51]
7.45 µM: TGI [40]
43.4 µM: TGI [31]
10.6 µM: TGI [54]
22.8 µM: TGI [5]
13.9 µM: TGI [33]
22.7 µM: TGI [39]
active: GI50 [2] 258 nM | GI50 [4] 78.6 nM | GI50 [8] 145 nM | GI50 [19] 196 nM | GI50 [22] 129 nM | GI50 [25] 63 nM | GI50 [27] 86.7 nM | GI50 [28] 348 nM | GI50 [30] 31.1 nM | GI50 [36] 92.9 nM | GI50 [43] 292 nM
28.9 µM: TGI [12]
19.8 µM: TGI [9]
25.6 µM: TGI [47]
17.6 µM: TGI [38]
27.7 µM: TGI [48]
10.9 µM: TGI [28]
13 µM: TGI [44]
45.6 µM: TGI [26]
20.3 µM: TGI [41]
28.5 µM: TGI [29]
153 nM: TGI [30]
11.1 µM: TGI [20]
0.719 µM: TGI [36]
> 45.5 µM: TGI [15]
19.6 µM: TGI [18]
8.57 µM: TGI [55]
2.04 µM: TGI [2]
29.1 µM: TGI [7]
24.2 µM: TGI [23]
20.2 µM: TGI [52]
3.77 µM: TGI [22]
26.7 µM: TGI [6]
12.9 µM: TGI [35]
21 µM: TGI [50]
13.3 µM: TGI [14] | TGI [17]
13.2 µM: TGI [56]
0.198 µM: TGI [25]
29.6 µM: TGI [49]
22.6 µM: TGI [45]
51.5 µM: TGI [58]
20.8 µM: TGI [21]
5.75 µM: TGI [34]
24.5 µM: TGI [3]
6.43 µM: TGI [43]

O=C(Nc1ccc([As](=O)(O)O)cc1)Nc1cccc(Cl)c1Cl
67.7 µM: TGI [17]
84.8 µM: TGI [57]
> 100000 nM: TGI [8] | TGI [30]
65.4 µM: TGI [38]
> 100 µM: TGI [1] | TGI [2] | TGI [3] | TGI [4] | TGI [5] | TGI [6] | TGI [7] | TGI [9] | TGI [10] | TGI [11] | TGI [12] | TGI [13] | TGI [14] | TGI [15] | TGI [16] | TGI [18] | TGI [20] | TGI [21] | TGI [22] | TGI [59] | TGI [23] | TGI [24] | TGI [25] | TGI [27] | TGI [28] | TGI [29] | TGI [32] | TGI [33] | TGI [34] | TGI [35] | TGI [36] | TGI [37] | TGI [39] | TGI [40] | TGI [41] | TGI [42] | TGI [43] | TGI [44] | TGI [45] | TGI [46] | TGI [47] | TGI [48] | TGI [49] | TGI [50] | TGI [51] | TGI [52] | TGI [53] | TGI [54] | TGI [55] | TGI [56] | TGI [58]

CN(C)c1ccc(/C=C/C(=O)CC(=O)/C=C/c2ccc(N(C)C)cc2)cc1
> 100000 nM: TGI [19]
> 100 µM: TGI [1] | TGI [2] | TGI [3] | TGI [4] | TGI [6] | TGI [7] | TGI [9] | TGI [10] | TGI [11] | TGI [12] | TGI [13] | TGI [14] | TGI [15] | TGI [16] | TGI [17] | TGI [18] | TGI [21] | TGI [22] | TGI [59] | TGI [23] | TGI [24] | TGI [25] | TGI [26] | TGI [27] | TGI [28] | TGI [29] | TGI [31] | TGI [32] | TGI [33] | TGI [34] | TGI [35] | TGI [36] | TGI [37] | TGI [38] | TGI [39] | TGI [40] | TGI [41] | TGI [42] | TGI [43] | TGI [44] | TGI [45] | TGI [46] | TGI [47] | TGI [48] | TGI [49] | TGI [50] | TGI [52] | TGI [53] | TGI [54] | TGI [55] | TGI [56] | TGI [57]
76.7 µM: TGI [58]
